Results on 28 compounds are retold here after ChEMBL document CHEMBL2062370, “Identification of glycogen synthase kinase-3 inhibitors with a selective sting for glycogen synthase kinase-3α” (J Med Chem, 2012).

Molecules are shown by their SMILES.

In data set [1] the target is Glycogen synthase kinase-3 beta (Homo sapiens, UniProt P49841). The data set can be described thus: Inhibition of human recombinant GSK3beta.
For the next data set, the species on record is Danio rerio. The data set is described as follows: Toxicity in wild type zebrafish embryo assessed as mortality up to 30 uM treated 5 hrs after post fertilization measured 5 days after post fertilization by microscopy. Type of data set: organism-based. The settings on record: in vivo, 120 h.
For data set [2], the target named is Glycogen synthase kinase-3 alpha (Homo sapiens, UniProt P49840). The data set can be described thus: Inhibition of human recombinant GSK3alpha.
Another data set deals with T1, Aurora kinase A (Homo sapiens, UniProt O14965).
T1 sequence (O14965 whole entry): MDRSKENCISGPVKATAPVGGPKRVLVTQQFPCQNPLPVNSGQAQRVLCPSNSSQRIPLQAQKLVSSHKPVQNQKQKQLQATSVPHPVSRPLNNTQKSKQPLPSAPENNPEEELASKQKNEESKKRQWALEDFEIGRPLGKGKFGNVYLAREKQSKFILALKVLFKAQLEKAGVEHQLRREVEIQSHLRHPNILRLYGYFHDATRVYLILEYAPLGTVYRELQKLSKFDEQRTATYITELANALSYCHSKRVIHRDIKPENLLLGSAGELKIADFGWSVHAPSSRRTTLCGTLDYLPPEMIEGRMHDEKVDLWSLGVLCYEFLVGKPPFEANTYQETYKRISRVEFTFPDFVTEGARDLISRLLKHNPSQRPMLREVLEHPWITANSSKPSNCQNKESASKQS
The data set can be described thus: Inhibition of human recombinant AurKA by FRET assay.

Data set [3] concerns the target Protein kinase C alpha type (Homo sapiens, UniProt P17252). The data set can be described thus: Inhibition of human recombinant PKCalpha by FRET assay.
In data set [4] the target is Cyclin-dependent kinase 5/CDK5 activator 1 (Homo sapiens, UniProt Q00535). The data set can be described thus: Inhibition of human recombinant CDK5/p35 by FRET assay. The class given is protein-complex assay.
Data set [5] addresses Casein kinase I isoform epsilon (Homo sapiens, UniProt P49674). The data set can be described thus: Inhibition of human recombinant CK1epsilon by FRET assay.
Another data set deals with Caco-2. The data set is described as follows: Permeability from apical to basolateral side of human Caco2 cells at pH 6.5/7.4 after 60 mins by HPLC MS/ Mass spectroscopic analysis. Type of data set: ADME, cell-based. Conditions: caco-2, pH 6.5, 1 h.
The test system of a further data set is Liver microsomes. The data set is described as follows: Metabolic stability in human liver microsomes after 60 mins by HPLC MS/ Mass spectroscopic analysis. Type of data set: ADME, Microsome. Conditions: 1 h.
Data set [6] can be described thus: Octanol-phosphate buffer partition coefficient, log D of the compound at 100 uM at pH 7.4 after 60 mins by HPLC-UV/VIS spectroscopic analysis. The class given is physicochemical.
A short description of data set [7]: Aqueous solubility of the compound at 200 uM at pH 7.4 in phosphate buffer saline after 24 hrs by HPLC-UV/VIS spectroscopic analysis. Type of data set: physicochemical. The settings on record: pH 7.4, 24 h.

Cyclin-dependent kinase 5/CDK5 activator 1, sequence (Q00535 whole entry, canonical isoform): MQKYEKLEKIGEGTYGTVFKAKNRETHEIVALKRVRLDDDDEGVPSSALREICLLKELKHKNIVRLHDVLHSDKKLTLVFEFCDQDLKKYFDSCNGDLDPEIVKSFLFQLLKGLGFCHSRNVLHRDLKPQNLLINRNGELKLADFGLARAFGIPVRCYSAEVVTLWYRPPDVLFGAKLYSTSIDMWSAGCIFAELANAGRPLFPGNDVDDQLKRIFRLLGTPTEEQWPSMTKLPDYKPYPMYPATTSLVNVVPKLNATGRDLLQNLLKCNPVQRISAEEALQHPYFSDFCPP
Cyclin-dependent kinase 5/CDK5 activator 1, sequence (Q15078 whole entry, further chain, canonical isoform): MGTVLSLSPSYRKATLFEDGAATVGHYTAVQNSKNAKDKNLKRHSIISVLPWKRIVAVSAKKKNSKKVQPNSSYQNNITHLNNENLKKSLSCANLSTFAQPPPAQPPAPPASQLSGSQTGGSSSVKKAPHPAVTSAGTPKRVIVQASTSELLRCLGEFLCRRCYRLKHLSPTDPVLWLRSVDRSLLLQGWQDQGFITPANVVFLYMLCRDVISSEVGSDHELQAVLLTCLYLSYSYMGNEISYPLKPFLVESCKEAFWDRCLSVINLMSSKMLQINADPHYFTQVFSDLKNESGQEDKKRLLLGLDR
Glycogen synthase kinase-3 alpha, sequence (P49840 whole entry): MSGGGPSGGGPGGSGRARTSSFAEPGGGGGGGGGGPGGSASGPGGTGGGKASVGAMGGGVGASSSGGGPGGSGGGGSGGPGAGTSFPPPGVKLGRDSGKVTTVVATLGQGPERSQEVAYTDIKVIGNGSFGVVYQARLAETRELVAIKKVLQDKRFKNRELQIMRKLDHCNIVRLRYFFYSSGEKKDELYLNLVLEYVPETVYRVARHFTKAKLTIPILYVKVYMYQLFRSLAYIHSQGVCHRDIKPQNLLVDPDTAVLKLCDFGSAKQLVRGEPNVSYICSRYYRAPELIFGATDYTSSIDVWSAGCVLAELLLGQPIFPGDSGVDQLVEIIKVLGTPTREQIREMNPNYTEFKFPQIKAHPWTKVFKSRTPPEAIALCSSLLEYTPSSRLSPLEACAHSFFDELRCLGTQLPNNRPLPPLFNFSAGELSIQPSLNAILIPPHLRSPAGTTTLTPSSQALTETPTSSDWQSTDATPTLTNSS
Casein kinase I isoform epsilon, sequence (P49674 whole entry, canonical isoform): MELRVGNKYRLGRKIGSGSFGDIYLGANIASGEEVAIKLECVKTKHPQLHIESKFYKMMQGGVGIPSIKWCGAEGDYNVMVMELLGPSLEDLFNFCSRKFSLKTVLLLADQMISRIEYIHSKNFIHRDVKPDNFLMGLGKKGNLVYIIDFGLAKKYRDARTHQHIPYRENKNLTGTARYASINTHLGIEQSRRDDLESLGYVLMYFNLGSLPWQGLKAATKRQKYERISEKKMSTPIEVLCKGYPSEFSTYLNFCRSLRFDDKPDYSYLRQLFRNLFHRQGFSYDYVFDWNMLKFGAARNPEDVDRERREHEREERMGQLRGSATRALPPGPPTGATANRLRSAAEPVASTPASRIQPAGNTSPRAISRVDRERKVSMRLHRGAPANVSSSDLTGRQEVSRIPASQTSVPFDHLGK
Glycogen synthase kinase-3 beta, sequence (P49841 whole entry): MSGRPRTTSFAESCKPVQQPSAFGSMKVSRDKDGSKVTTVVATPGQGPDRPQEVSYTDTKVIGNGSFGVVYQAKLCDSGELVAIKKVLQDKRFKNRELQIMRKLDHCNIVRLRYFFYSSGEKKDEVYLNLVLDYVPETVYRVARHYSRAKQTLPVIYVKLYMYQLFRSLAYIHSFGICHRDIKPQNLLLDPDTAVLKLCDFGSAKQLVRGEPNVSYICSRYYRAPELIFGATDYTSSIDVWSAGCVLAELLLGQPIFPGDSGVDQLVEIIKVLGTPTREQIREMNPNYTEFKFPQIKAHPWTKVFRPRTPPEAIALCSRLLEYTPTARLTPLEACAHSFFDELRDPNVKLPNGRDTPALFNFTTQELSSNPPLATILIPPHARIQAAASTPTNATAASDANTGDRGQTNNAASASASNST

In the case of `N#Cc1ccc(CSc2nnc(-c3ccc4c(c3)OCCO4)o2)cc1`, the IC50 is 0.166 µM in data set [1] and 0.045 µM in data set [2]. In the data set filed under Danio rerio, the Activity entry is reported as “Non-toxic”.
Take `N#Cc1ccccc1-c1ccc(CSc2nnc(-c3ccc4c(c3)OCCO4)o2)cc1`: the IC50 at Aurora kinase A is > 100 µM; in [1], < 0.005 µM; in [3], > 100 µM; in data set [4], > 100 µM; in [5] it was > 100 µM; in data set [2] it was < 0.005 µM. Further, in the data set listed under Danio rerio, the Activity entry is recorded as “Non-toxic”.
As to `O=C(O)c1ccc(CSc2nnc(-c3ccc4c(c3)OCO4)o2)cc1`, the Activity result in the data set filed under Danio rerio is reported as “Non-toxic”.
For `N#Cc1ccc(CSc2nnc(-c3ccncc3)o2)cc1`, the IC50 in data set [1] was 10 µM; in [2], 7.38 µM. For the same compound, the Activity result in the data set listed under Danio rerio is listed as “Non-toxic”.
As to `N#Cc1ccccc1-c1ccc(CSc2nnc(-c3ccncc3)o2)cc1`, the IC50 at Aurora kinase A is > 100 µM; in data set [1], 0.041 µM; in data set [3], > 100 µM; in [4], > 100 µM; in data set [5], > 100 µM; in [2] it was 0.019 µM. For the same compound, the Activity result in the data set listed under Danio rerio is recorded as “Non-toxic”.
Take `c1ccc(CSc2nnc(-c3ccncc3)o2)cc1`: the 50% inhibitory concentration (IC50) in data set [1] worked out at 1.32 µM; in data set [2] it was 2.24 µM. For the same compound, the Activity entry in the data set listed under Danio rerio is recorded as “Non-toxic”.
On to `COC(=O)c1ccc(CSc2nnc(-c3ccc4c(c3)OCO4)o2)cc1`, for which, in the data set listed under Danio rerio, the Activity entry was “Non-toxic”.
Still for that read-out and setting: the same measure for `COC(CNC(=O)c1ccc(CSc2nnc(-c3ccc4c(c3)OCCO4)o2)cc1)OC`: “Non-toxic”.
Consider `N#Cc1ccccc1-c1ccc(CSc2nnc(-c3ccc4c(c3)OCO4)o2)cc1`, for which the IC50 at Aurora kinase A is > 100 µM; in data set [1], 0.039 µM; in [3], > 100 µM; in [4], > 100 µM; in data set [5], > 100 µM; in data set [2], < 0.005 µM. In addition, the Activity result in the data set filed under Danio rerio is “Non-toxic”.
As for `CC(C)CNC(=O)c1ccc(CSc2nnc(-c3ccc4c(c3)OCO4)o2)cc1`, the Activity entry in the data set filed under Danio rerio was “Non-toxic”.
`c1cc(-c2nnn[nH]2)ccc1CSc1nnc(-c2ccc3c(c2)OCO3)o1`: the values for the IC50 in data set [1] and in data set [2] were 0.172 µM and 0.107 µM, respectively. Also, the Activity entry in the data set listed under Danio rerio is listed as “Non-toxic”.
In the case of `CC(C)CNC(=O)c1ccc(CSc2nnc(-c3ccc4c(c3)OCCO4)o2)cc1`, the Activity result in the data set listed under Danio rerio is on record as “Non-toxic”.
`COCC1COc2ccc(-c3nnc(SCc4ccc(-c5ccccc5C#N)cc4)o3)cc2O1` (racemic): the IC50 at Aurora kinase A was 30 µM; in data set [1] it was 0.233 µM; in data set [3] it was > 100 µM; in data set [4], > 100 µM; in data set [5], > 100 µM; in data set [2] it was 0.054 µM. In the data set listed under Danio rerio, the Activity result was “Non-toxic”.
With `N#Cc1cccc(CSc2nnc(-c3ccncc3)o2)c1`, the figures for the IC50 in [1] and in [2] were 3.16 µM and 3.21 µM, respectively. The Activity result in the data set filed under Danio rerio is on record as “Non-toxic”.
`O=C(O)c1ccc(CSc2nnc(-c3ccc4c(c3)OCCO4)o2)cc1`: the Activity entry in the data set filed under Danio rerio was “Non-toxic”.
`N#Cc1cc(F)ccc1-c1ccc(CSc2nnc(-c3ccc4c(c3)OCCO4)o2)cc1`: the IC50 on Aurora kinase A is 5 µM; in data set [3] it was > 100 µM; in data set [4], > 100 µM; in [5], > 100 µM. Besides, in the data set filed under Danio rerio, the Activity result is recorded as “Non-toxic”.
Regarding `N#Cc1ccc(CSc2nnc(-c3ccc4c(c3)OCO4)o2)cc1`, the values for the IC50 in data set [1] and in data set [2] were 0.13 µM and 0.015 µM, respectively. Besides, in the data set listed under Danio rerio, the Activity result is listed as “Non-toxic”.
Consider `COC[C@@H]1COc2ccc(-c3nnc(SCc4ccc(-c5ccccc5C#N)cc4)o3)cc2O1`, for which the IC50 at Aurora kinase A is > 100 µM; in data set [1], 0.758 µM; in data set [3] it was > 100 µM; in data set [4], > 100 µM; in data set [5] it was > 100 µM; in data set [2], 0.195 µM. In the data set filed under Danio rerio, the Activity result is “Non-toxic”.
As to `COC[C@H]1COc2ccc(-c3nnc(SCc4ccc(-c5ccccc5C#N)cc4)o3)cc2O1`, the IC50 on Aurora kinase A was > 100 µM; in data set [1], 0.129 µM; in data set [3], > 100 µM; in data set [4] it was > 100 µM; in data set [5] it was > 100 µM; in data set [2], 0.015 µM. In addition, in the data set filed under Danio rerio, the Activity entry was “Non-toxic”.
On to `Ic1cccc(CSc2nnc(-c3ccncc3)o2)c1`, for which the Activity result in the data set filed under Danio rerio is given as “Non-toxic”. In data set [2], the IC50 was found to be 0.39 µM.
Turning to `N#Cc1cc(F)ccc1-c1ccc(CSc2nnc(-c3ccc4c(c3)OCO4)o2)cc1`, the IC50 at Aurora kinase A was 30 µM; in [1] it was 0.022 µM; in data set [3], > 100 µM; in data set [4], > 100 µM; in data set [5], 20 µM; in data set [2] it was 0.003 µM. Moreover, the Activity entry in the data set listed under Danio rerio is “Non-toxic”.
For the compound `COC(=O)c1ccc(CSc2nnc(-c3ccc4c(c3)OCCO4)o2)cc1`, the IC50 (at Aurora kinase A; in data set [3]; in data set [4]; in [5]) was > 100 µM throughout. Also, the Activity entry in the data set listed under Danio rerio is “Non-toxic”.
Consider `O=C(NCc1ccccc1)c1ccc(CSc2nnc(-c3ccc4c(c3)OCCO4)o2)cc1`, for which the Activity result in the data set filed under Danio rerio was “Non-toxic”.
As for `N#Cc1ccc(-c2ccc(CSc3nnc(-c4ccc5c(c4)OCO5)o3)cc2)cc1`, the permeability entry in the data set on Caco-2 is listed as “impermeable”. Also, the IC50 at Aurora kinase A is 30 µM; in data set [3] it was > 100 µM; in [4], > 100 µM; in data set [5], 60 µM. In the data set with Liver microsomes, the Stability entry is reported as “Stable”. This compound also showed a logD at 1 h, 100 µM in [6] of 3.58. For the same compound, the solubility entry in data set [7] was “Insoluble”. Also, the Activity entry in the data set filed under Danio rerio is recorded as “Non-toxic”.
`N#Cc1cccc(CSc2nnc(-c3ccc4c(c3)OCCO4)o2)c1`: the IC50 in [1] was 0.086 µM; in [2], 0.095 µM. Moreover, in the data set listed under Danio rerio, the Activity result is “Non-toxic”.
`c1ccc(-c2ccc(CSc3nnc(-c4ccc5c(c4)OCO5)o3)cc2)cc1`: the IC50 at Aurora kinase A is > 100 µM; in data set [1], 0.176 µM; in data set [3], > 100 µM; in data set [4] it was > 100 µM; in data set [5], > 100 µM; in data set [2] it was 0.009 µM. Also, the Activity result in the data set listed under Danio rerio is reported as “Non-toxic”.
With `N#Cc1cccc(CSc2nnc(-c3ccc4c(c3)OCO4)o2)c1`, the IC50 in data set [1] came out at 0.065 µM; in data set [2] it was 0.015 µM. Also, in the data set listed under Danio rerio, the Activity result is “Non-toxic”.
As for `COC(CNC(=O)c1ccc(CSc2nnc(-c3ccc4c(c3)OCO4)o2)cc1)OC`, in the data set listed under Danio rerio, the Activity result is given as “Non-toxic”.
